From patent publication US9340510B2, “Tetrahydroisoquinoline derivatives, pharmaceutical compositions and uses thereof” (Boehringer Ingelheim International GmbH, priority 2014, dated 2016) come the findings set out here.

Chain of human ACC2 (O00763 129-2458): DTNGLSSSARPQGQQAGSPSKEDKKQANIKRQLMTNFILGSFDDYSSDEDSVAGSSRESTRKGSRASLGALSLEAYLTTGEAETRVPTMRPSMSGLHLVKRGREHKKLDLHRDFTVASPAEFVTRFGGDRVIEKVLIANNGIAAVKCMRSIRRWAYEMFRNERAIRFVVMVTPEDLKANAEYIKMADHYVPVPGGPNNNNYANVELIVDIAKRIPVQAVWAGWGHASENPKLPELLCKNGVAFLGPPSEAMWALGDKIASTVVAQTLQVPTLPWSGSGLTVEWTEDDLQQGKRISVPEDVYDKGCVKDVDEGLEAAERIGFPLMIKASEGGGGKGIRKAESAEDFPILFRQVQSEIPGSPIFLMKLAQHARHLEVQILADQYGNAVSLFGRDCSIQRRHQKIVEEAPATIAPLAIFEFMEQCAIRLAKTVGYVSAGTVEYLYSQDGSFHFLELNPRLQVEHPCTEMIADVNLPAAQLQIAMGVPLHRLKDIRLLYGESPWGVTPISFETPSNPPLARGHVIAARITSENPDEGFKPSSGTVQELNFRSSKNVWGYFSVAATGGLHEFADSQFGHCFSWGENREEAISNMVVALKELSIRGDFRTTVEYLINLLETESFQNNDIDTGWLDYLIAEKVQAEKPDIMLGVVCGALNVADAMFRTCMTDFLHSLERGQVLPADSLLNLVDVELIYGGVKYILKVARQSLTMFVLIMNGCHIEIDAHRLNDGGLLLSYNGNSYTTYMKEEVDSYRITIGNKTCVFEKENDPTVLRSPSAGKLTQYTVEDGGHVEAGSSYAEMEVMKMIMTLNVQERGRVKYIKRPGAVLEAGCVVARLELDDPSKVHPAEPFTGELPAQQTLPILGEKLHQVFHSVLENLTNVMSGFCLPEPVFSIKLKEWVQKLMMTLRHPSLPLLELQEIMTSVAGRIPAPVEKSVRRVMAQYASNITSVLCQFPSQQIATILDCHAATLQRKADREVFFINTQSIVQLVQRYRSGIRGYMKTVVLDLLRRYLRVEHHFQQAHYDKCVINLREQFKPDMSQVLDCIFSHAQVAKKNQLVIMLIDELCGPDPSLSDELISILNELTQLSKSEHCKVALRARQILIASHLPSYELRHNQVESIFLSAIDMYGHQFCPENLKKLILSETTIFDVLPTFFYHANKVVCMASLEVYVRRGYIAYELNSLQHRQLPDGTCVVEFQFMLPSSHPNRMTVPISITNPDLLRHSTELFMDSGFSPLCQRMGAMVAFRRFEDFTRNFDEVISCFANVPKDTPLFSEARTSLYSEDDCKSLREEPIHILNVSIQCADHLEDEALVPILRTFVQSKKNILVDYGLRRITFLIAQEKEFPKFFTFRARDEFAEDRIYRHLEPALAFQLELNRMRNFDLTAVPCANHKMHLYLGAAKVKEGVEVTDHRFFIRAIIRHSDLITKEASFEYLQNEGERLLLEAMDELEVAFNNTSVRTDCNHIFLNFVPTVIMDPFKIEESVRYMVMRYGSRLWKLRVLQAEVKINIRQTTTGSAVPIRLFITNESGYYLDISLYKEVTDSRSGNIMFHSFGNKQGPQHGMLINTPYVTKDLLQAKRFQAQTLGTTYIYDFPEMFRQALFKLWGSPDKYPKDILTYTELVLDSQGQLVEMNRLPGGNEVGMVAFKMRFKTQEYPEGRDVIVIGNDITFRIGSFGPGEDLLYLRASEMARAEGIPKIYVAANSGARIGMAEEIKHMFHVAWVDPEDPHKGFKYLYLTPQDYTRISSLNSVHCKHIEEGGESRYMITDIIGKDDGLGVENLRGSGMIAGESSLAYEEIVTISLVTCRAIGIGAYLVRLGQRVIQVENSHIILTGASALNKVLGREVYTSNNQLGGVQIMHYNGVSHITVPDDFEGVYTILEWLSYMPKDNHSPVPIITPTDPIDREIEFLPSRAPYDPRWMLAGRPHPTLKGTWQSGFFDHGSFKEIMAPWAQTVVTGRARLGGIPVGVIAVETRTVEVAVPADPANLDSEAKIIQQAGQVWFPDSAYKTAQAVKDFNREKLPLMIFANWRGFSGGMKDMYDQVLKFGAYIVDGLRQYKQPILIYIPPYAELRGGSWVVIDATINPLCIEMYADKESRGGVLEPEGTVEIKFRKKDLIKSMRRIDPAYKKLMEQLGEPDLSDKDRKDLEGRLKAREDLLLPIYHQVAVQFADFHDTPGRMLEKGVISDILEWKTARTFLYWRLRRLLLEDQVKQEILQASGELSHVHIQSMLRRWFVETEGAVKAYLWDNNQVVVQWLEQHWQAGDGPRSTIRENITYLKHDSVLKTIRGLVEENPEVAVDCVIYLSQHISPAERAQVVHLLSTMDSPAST

The assay addresses human ACC2 (Homo sapiens (Human), UniProt O00763). Briefly: ACC2 assay: spectrophotometric 384 well assay (coupled lactate dehydrogenase/pyruvate kinase). The format is biochemical. Particulars: hACC2 construct lacking the 128 N-terminal amino acids, 25° C., 340 nm. How it is done:
Spectrophotometric 384 Well Assay
Malonyl CoA formation by acetyl CoA carboxylases is stoichiometrically linked to the consumption of ATP. ACC2 activity is measured in a […] kinetic method measuring ADP generated during the ACC reaction using a coupled lactate dehydrogenase/pyruvate kinase reaction.
For biological testing, a human ACC2 construct which lacks the 128 amino acids at the N-terminus for increased solubility (nt 385-6966 in Genbank entry AJ575592) is cloned. The protein is then expressed in insect cells using a baculoviral expression system. Protein purification is performed by anion exchange.
All compounds are dissolved in dimethyl sulfoxide (DMSO) to a concentration of 10 mM.
Assay reactions are then carried out in 384-well plates, with hACC2 in an appropriate dilution and at final assay concentrations (f.c.) of 100 mM Tris (pH 7.5), 10 mM trisodium citrate, 25 mM KHCO3, 10 mM MgCl2, 0.5 mg/ml BSA, 3.75 mM reduced L-glutathione, 15 U/ml lactate dehydrogenase, 0.5 mM phosphoenolpyruvate, 15 U/ml pyruvate kinase, compounds at different concentrations at final DMSO concentrations of 1%.
The enzymatic reaction is then started by addition of a mixture of NADH, acetyl Coenzyme A (both […].) and ATP (500 uM f.c.). The decrease of the optical density (slope S) is then determined at 25° C. at a wavelength of 340 nm over 15 minutes in a spectrophotometric reader.
Each assay microtiter plate contains wells with vehicle instead of compound as controls for the non-inhibited enzyme (100% CTL; ‘HIGH’) and wells without acetyl-CoA as controls for non-specific NADH degradation (0% CTL; ‘LOW’).
The slope S is used for calculation of % CTL=(S(compound)−S(‘LOW’))/(S(‘HIGH’)−S(‘LOW’))*100. Compounds will give values between 100% CTL (no inhibition) and 0% CTL (complete inhibition).
For IC50 value determination, the sample slope in the presence of the test compound after subtraction of the low controls (S(compound)−S(‘LOW’)) are used.
An IC50 value is derived from the compound slopes at different dosages after subtraction of the low controls (S(compound)-S(‘LOW’)) by non-linear regression curve fitting (equation y=(A+((B−A)/(1+((C/x)^D))))).
Broadly, the IC50 is the point on the concentration scale where inhibition reaches its midpoint. Low readings indicate greater potency in that assay, high ones weaker potency in that assay. In the case of `CCC(=O)N[C@@H](C)c1ccc(CN2CCc3c(Br)cccc3C2)cc1` [Example 2.011], half-maximal inhibition (IC50) required 194 nM.

As to `CC(=O)Nc1nc(C)c(C(=O)N[C@@H](C)c2ccc(CN3CCc4c(cccc4OC4CCC4)C3)cc2)s1` [Example 2.012], the IC50 was determined as 97 nM.

`CCC(=O)N[C@@H](C)c1ccc(CN2CCc3c(cccc3OC3CCC3)C2)cc1` [Example 2.013] yielded an IC50 of 166 nM. On to `C[C@H](NC(=O)c1cncs1)c1ccc(CN2CCc3c(cccc3OC3CCC3)C2)cc1` [Example 2.014], for which 144 nM corresponded to half-maximal inhibition (IC50).

With `C[C@H](NC(=O)C1CC1)c1ccc(CN2CCc3cc(OCC4CC(F)(F)C4)ccc3C2)cc1` [Example 2.015], half-maximal inhibition (IC50) required 38 nM. As to `C[C@H](NC(=O)C1CC1)c1ccc(CN2CCc3cc(OCCCF)ccc3C2)cc1` [Example 2.016], the IC50 came out at 299 nM.

`C[C@H](NC(=O)C1CC1)c1ccc(CN2CCc3cc(OCC4CCC4)ccc3C2)cc1` [Example 2.017] came in with an IC50 of 38 nM. `C[C@H](NC(=O)C1CC1)c1ccc(CN2CCc3cc(OCCC4CC4)ccc3C2)cc1` [Example 2.018] came in with an IC50 of 47 nM. The same measure for `CC(C)COc1ccc2c(c1)CCN(Cc1ccc([C@H](C)NC(=O)C3CC3)cc1)C2` [Example 2.019]: 57 nM; for `CC(=O)Nc1nc(C)c(C(=O)N[C@@H](C)c2ccc(CN3CCc4cc(OCC5CC5(F)F)ccc4C3)cc2)s1` (stereo partly shown) [Example 2.020]: 28 nM; for `CC(O)C(=O)N[C@@H](C)c1ccc(CN2CCc3cc(OCC4CC4)ccc3C2)cc1` (stereo partly shown) [Example 2.021]: 168 nM. Take `C[C@H](NC(=O)Cc1cncnc1)c1ccc(CN2CCc3cc(OCC4CC4)ccc3C2)cc1` [Example 2.022]: the IC50 is 82 nM. The same measure for `C[C@H](NC(=O)CO)c1ccc(CN2CCc3cc(OCC4CC4)ccc3C2)cc1` [Example 2.023]: 82 nM. Take `C[C@H](NC(=O)C1(O)CC1)c1ccc(CN2CCc3cc(OCC4CC4)ccc3C2)cc1` [Example 2.024]: half-maximal inhibition (IC50) was put at 150 nM.

As for `C[C@H](NC(=O)CO)c1ccc(CN2CCc3cc(OC[C@@H]4CC4(F)F)ccc3C2)cc1` [Example 2.025], inhibition was half-maximal at 89 nM (IC50).

The compound `C[C@H](NC(=O)Cc1cncnc1)c1ccc(CN2CCc3cc(OC[C@@H]4CC4(F)F)ccc3C2)cc1` [Example 2.026] yielded a half-inhibitory concentration (IC50) of 81 nM.

The compound `CC(O)C(=O)N[C@@H](C)c1ccc(CN2CCc3cc(OC[C@@H]4CC4(F)F)ccc3C2)cc1` (stereo partly shown) [Example 2.027] came in with an IC50 of 130 nM.

On to `C[C@H](NC(=O)C1(O)CC1)c1ccc(CN2CCc3cc(OC[C@@H]4CC4(F)F)ccc3C2)cc1` [Example 2.028], for which the IC50 was 217 nM. The figure for `C[C@H](NC(=O)C1CCC(=O)N1)c1ccc(CN2CCc3cc(OC[C@@H]4CC4(F)F)ccc3C2)cc1` (stereo partly shown) [Example 2.029] is 329 nM. The same measure for `C[C@H](NC(=O)CC(=O)N(C)C)c1ccc(CN2CCc3cc(OC[C@@H]4CC4(F)F)ccc3C2)cc1` [Example 2.031]: 447 nM. The same measure for `CC(=O)Nc1nc(C)c(C(=O)N[C@@H](C)c2ccc(CN3CCc4cc(OCC5CC5)ccc4C3)cc2)s1` [Example 2.032]: 34 nM; for `CCC(=O)Nc1nc(C)c(C(=O)N[C@@H](C)c2ccc(CN3CCc4cc(OCC5CC5)ccc4C3)cc2)s1` [Example 2.033]: 39 nM; for `C[C@H](NC(=O)CO)c1ccc(CN2Cc3ccc(OCC4CC4(F)F)cc3C(F)C2)cc1` (stereo partly shown) [Example 2.034]: 55 nM. As for `CC(=O)Nc1nc(C)c(C(=O)N[C@@H](C)c2ccc(CN3Cc4ccc(OCC5CC5(F)F)cc4C(O)C3)cc2)s1` (stereo partly shown) [Example 2.035], the IC50 turned out to be 259 nM.

`C[C@H](NC(=O)C1CC(F)C1)c1ccc(CN2Cc3ccc(OCC4CC4(F)F)cc3C(O)C2)cc1` (stereo partly shown) [Example 2.036] showed an IC50 of 408 nM. The figure for `C[C@H](NC(=O)CC#N)c1ccc(CN2Cc3ccc(OCC4CC4(F)F)cc3C(O)C2)cc1` (stereo partly shown) [Example 2.037] is 806 nM; for `C[C@H](NC(=O)c1cncnc1)c1ccc(CN2CC(=O)c3cc(OCC4CC4(F)F)ccc3C2)cc1` (stereo partly shown) [Example 2.038] it is 819 nM; for `C[C@H](NC(=O)CO)c1ccc(CN2CC(=O)c3cc(OCC4CC4(F)F)ccc3C2)cc1` (stereo partly shown) [Example 2.039] it is 565 nM. The figure for `C[C@H](NC(=O)CO)c1ccc(CN2CC(=O)c3cc(OCC4CC4)ccc3C2)cc1` [Example 2.041] is 600 nM; for `CC(O)C(=O)N[C@@H](C)c1ccc(CN2CC(=O)c3cc(OCC4CC4)ccc3C2)cc1` (stereo partly shown) [Example 2.042] it is 624 nM. Compound `C[C@H](NC(=O)CC#N)c1ccc(CN2CC(=O)c3cc(OCC4CC4)ccc3C2)cc1` [Example 2.043] yielded a concentration for half-maximal inhibition (IC50) of 428 nM. The same measure for `C[C@H](NC(=O)Cc1cncnc1)c1ccc(CN2CC(=O)c3cc(OCC4CC4)ccc3C2)cc1` [Example 2.044]: 446 nM. As for `C[C@H](NC(=O)CC#N)c1ccc(CN2CCc3cc(OCC4CC4(F)F)ccc3C2)cc1` (stereo partly drawn) [Example 3.001, 2-Cyano-N—((S)-1-{4-[6-(2,2-difluoro-cyclopropylmethoxy)-3,4-dihydro-1H-isoquinolin-2-ylmethyl]-phenyl}-ethyl)-acetamide], the IC50 turned out to be 35 nM. `C[C@H](NC(=O)C(C)(F)F)c1ccc(CN2CCc3cc(OCC4CC4(F)F)ccc3C2)cc1` (stereo partly shown) [Example 3.002]: inhibition was half-maximal at 29 nM (IC50). Take `CC(C#N)C(=O)N[C@@H](C)c1ccc(CN2CCc3cc(OCC4CC4(F)F)ccc3C2)cc1` (stereo partly shown) [Example 3.003]: the IC50 was found to be 91 nM. `C[C@H](NC(=O)Cc1cncnc1)c1ccc(CN2Cc3ccc(OCC4CC4(F)F)cc3C(F)C2)cc1` (stereo partly shown) [Example 3.03] returned an IC50 of 95 nM. `C[C@H](NC(=O)c1cnn(C)c1)c1ccc(CN2CCc3cc(OCC4CC4(F)F)ccc3C2)cc1` (stereo partly shown) [Example 3.004] came in with an IC50 of 46 nM. In turn, `C[C@H](NC(=O)C1(C(F)(F)F)CC1)c1ccc(CN2CCc3cc(OCC4CC4(F)F)ccc3C2)cc1` (stereo partly shown) [Example 3.005] came in with an IC50 of 59 nM. The figure for `C[C@H](NC(=O)C1CCC1)c1ccc(CN2CCc3cc(OCC4CC4(F)F)ccc3C2)cc1` (stereo partly shown) [Example 3.006] is 38 nM; for `C[C@H](NC(=O)C1CC(F)C1)c1ccc(CN2CCc3cc(OCC4CC4(F)F)ccc3C2)cc1` (stereo partly shown) [Example 3.007] it is 50 nM.

`C[C@H](NC(=O)c1ccns1)c1ccc(CN2CCc3cc(OCC4CC4(F)F)ccc3C2)cc1` (stereo partly shown) [Example 3.008] returned an IC50 of 68 nM. The same measure for `C[C@H](NC(=O)c1cnco1)c1ccc(CN2CCc3cc(OCC4CC4(F)F)ccc3C2)cc1` (stereo partly shown) [Example 3.009]: 59 nM.

In the case of `C[C@H](NC(=O)c1cn[nH]c1)c1ccc(CN2CCc3cc(OCC4CC4(F)F)ccc3C2)cc1` (stereo partly shown) [Example 3.010], the IC50 was 25 nM. The figure for `C[C@H](NC(=O)c1ccon1)c1ccc(CN2CCc3cc(OCC4CC4(F)F)ccc3C2)cc1` (stereo partly shown) [Example 3.011] is 52 nM; for `Cc1[nH]ncc1C(=O)N[C@@H](C)c1ccc(CN2CCc3cc(OCC4CC4(F)F)ccc3C2)cc1` (stereo partly shown) [Example 3.012] it is 122 nM.

`C[C@H](NC(=O)C1(C#N)CC1)c1ccc(CN2CCc3cc(OCC4CC4(F)F)ccc3C2)cc1` (stereo partly shown) [Example 3.013]: the IC50 was determined as 40 nM. The figure for `C[C@H](NC(=O)c1ccno1)c1ccc(CN2CCc3cc(OCC4CC4(F)F)ccc3C2)cc1` (stereo partly shown) [Example 3.014] is 103 nM; for `C[C@H](NC(=O)C1(C)CC1)c1ccc(CN2CCc3cc(OCC4CC4(F)F)ccc3C2)cc1` (stereo partly shown) [Example 3.015] it is 24 nM. The same measure for `C[C@H](NC(=O)c1cnn(C)c1Cl)c1ccc(CN2CCc3cc(OCC4CC4(F)F)ccc3C2)cc1` (stereo partly shown) [Example 3.016]: 162 nM; for `CCC(=O)Nc1nc(C)c(C(=O)N[C@@H](C)c2ccc(CN3CCc4cc(OCC5CC5(F)F)ccc4C3)cc2)s1` (stereo partly shown) [Example 3.017]: 37 nM. The same measure for `C[C@H](NC(=O)c1cnn(C)c1N)c1ccc(CN2CCc3cc(OCC4CC4(F)F)ccc3C2)cc1` (stereo partly shown) [Example 3.018]: 208 nM; for `C[C@H](NC(=O)c1cncs1)c1ccc(CN2CCc3cc(OCC4CC4(F)F)ccc3C2)cc1` (stereo partly shown) [Example 3.019]: 28 nM.

`Cc1nocc1C(=O)N[C@@H](C)c1ccc(CN2CCc3cc(OCC4CC4(F)F)ccc3C2)cc1` (stereo partly shown) [Example 3.020]: the midpoint of inhibition, the IC50, lay at 33 nM. The compound `C[C@H](NC(=O)C1CC(F)(F)C1)c1ccc(CN2CCc3cc(OCC4CC4(F)F)ccc3C2)cc1` (stereo partly shown) [Example 3.021] displayed an IC50 of 198 nM. The figure for `C[C@H](NC(=O)[C@H]1C[C@H](F)C1)c1ccc(CN2CCc3cc(OCC4CC4(F)F)ccc3C2)cc1` (stereo partly shown) [Example 3.022] is 28 nM.
